What was measured:
Assay type in all cases: organism-based
Conditions in all cases: in vivo, other
Phaseolus vulgaris [1] = assay: Phytotoxicity against Phaseolus vulgaris (black beans) assessed as visual crop injury at 2232 g a.i./ha applied pre-emergence 1 to 2 days post-planting measured on day 14 post-emergence relative to control
Phaseolus vulgaris [2] = assay: Phytotoxicity against Phaseolus vulgaris (pinto beans) assessed as yield at 2232 g a.i./ha applied pre-emergence 1 to 2 days post-planting measured on day 42 post-emergence (reference value: 3.1 tons/ha)
Phaseolus vulgaris [3] = assay: Phytotoxicity against Phaseolus vulgaris (yellow eye beans) assessed as visual crop injury at 1116 g a.i./ha applied pre-emergence 1 to 2 days post-planting measured on day 14 post-emergence relative to control
Phaseolus vulgaris [4] = assay: Phytotoxicity against Phaseolus vulgaris (otebo beans) assessed as visual crop injury at 1116 g a.i./ha applied pre-emergence 1 to 2 days post-planting measured on day 14 post-emergence relative to control
Phaseolus vulgaris [5] = assay: Phytotoxicity against Phaseolus vulgaris (white beans) assessed as plant height at 2232 g a.i./ha applied pre-emergence 1 to 2 days post-planting measured on day 28 post-emergence (reference value: 36 cm)
Phaseolus vulgaris [6] = assay: Phytotoxicity against Phaseolus vulgaris (pinto beans) assessed as plant height at 1116 g a.i./ha applied pre-emergence 1 to 2 days post-planting measured on day 28 post-emergence (reference value: 38 cm)
Phaseolus vulgaris [7] = assay: Phytotoxicity against Phaseolus vulgaris (cranberry beans) assessed as plant height at 2232 g a.i./ha applied pre-emergence 1 to 2 days post-planting measured on day 28 post-emergence (reference value: 37 cm)
Phaseolus vulgaris [8] = assay: Phytotoxicity against Phaseolus vulgaris (pinto beans) assessed as shoot dry weight at 2232 g a.i./ha applied pre-emergence 1 to 2 days post-planting measured on day 42 post-emergence (reference value: 168 g/m)
Phaseolus vulgaris [9] = assay: Phytotoxicity against Phaseolus vulgaris (black beans) assessed as yield at 1116 g a.i./ha applied pre-emergence 1 to 2 days post-planting measured on day 42 post-emergence (reference value: 3.6 tons/ha)
Phaseolus vulgaris [10] = assay: Phytotoxicity against Phaseolus vulgaris (white beans) assessed as yield at 1116 g a.i./ha applied pre-emergence 1 to 2 days post-planting measured on day 42 post-emergence (reference value: 3 tons/ha)
Phaseolus vulgaris [11] = assay: Phytotoxicity against Phaseolus vulgaris (yellow eye beans) assessed as plant height at 1116 g a.i./ha applied pre-emergence 1 to 2 days post-planting measured on day 28 post-emergence (reference value: 38 cm)
Phaseolus vulgaris [12] = assay: Phytotoxicity against Phaseolus vulgaris (white beans) assessed as visual crop injury at 2232 g a.i./ha applied pre-emergence 1 to 2 days post-planting measured on day 14 post-emergence relative to control
Phaseolus vulgaris [13] = assay: Phytotoxicity against Phaseolus vulgaris (white beans) assessed as visual crop injury at 1116 g a.i./ha applied pre-emergence 1 to 2 days post-planting measured on day 14 post-emergence relative to control
Phaseolus vulgaris [14] = assay: Phytotoxicity against Phaseolus vulgaris (otebo beans) assessed as yield at 2232 g a.i./ha applied pre-emergence 1 to 2 days post-planting measured on day 42 post-emergence (reference value: 3.4 tons/ha)
Phaseolus vulgaris [15] = assay: Phytotoxicity against Phaseolus vulgaris (black beans) assessed as shoot dry weight at 2232 g a.i./ha applied pre-emergence 1 to 2 days post-planting measured on day 42 post-emergence (reference value: 165 g/m)
Phaseolus vulgaris [16] = assay: Phytotoxicity against Phaseolus vulgaris (yellow eye beans) assessed as visual crop injury at 2232 g a.i./ha applied pre-emergence 1 to 2 days post-planting measured on day 14 post-emergence relative to control
Phaseolus vulgaris [17] = assay: Phytotoxicity against Phaseolus vulgaris (white beans) assessed as shoot dry weight at 2232 g a.i./ha applied pre-emergence 1 to 2 days post-planting measured on day 42 post-emergence (reference value: 175 g/m)
Phaseolus vulgaris [18] = assay: Phytotoxicity against Phaseolus vulgaris (dry beans) assessed as change in seed moisture content at 1116 to 2232 g a.i./ha applied pre-emergence 1 to 2 days post-planting relative to control
Phaseolus vulgaris [19] = assay: Phytotoxicity against Phaseolus vulgaris (dry beans) assessed as visual crop injury at 1116 g a.i./ha applied pre-emergence 1 to 2 days post-planting measured on day 14 post-emergence relative to control
Phaseolus vulgaris [20] = assay: Phytotoxicity against Phaseolus vulgaris (dry beans) assessed as visual crop injury at 1116 g a.i./ha applied pre-emergence 1 to 2 days post-planting measured on day 28 post-emergence relative to control
Phaseolus vulgaris [21] = assay: Phytotoxicity against Phaseolus vulgaris (yellow eye beans) assessed as yield at 1116 g a.i./ha applied pre-emergence 1 to 2 days post-planting measured on day 42 post-emergence (reference value: 2.3 tons/ha)
Phaseolus vulgaris [22] = assay: Phytotoxicity against Phaseolus vulgaris (brown beans) assessed as visual crop injury at 2232 g a.i./ha applied pre-emergence 1 to 2 days post-planting measured on day 14 post-emergence relative to control
Phaseolus vulgaris [23] = assay: Phytotoxicity against Phaseolus vulgaris (black beans) assessed as plant height at 1116 g a.i./ha applied pre-emergence 1 to 2 days post-planting measured on day 28 post-emergence (reference value: 34 cm)
Phaseolus vulgaris [24] = assay: Phytotoxicity against Phaseolus vulgaris (white beans) assessed as yield at 2232 g a.i./ha applied pre-emergence 1 to 2 days post-planting measured on day 42 post-emergence (reference value: 3 tons/ha)
Phaseolus vulgaris [25] = assay: Phytotoxicity against Phaseolus vulgaris (black beans) assessed as visual crop injury at 1116 g a.i./ha applied pre-emergence 1 to 2 days post-planting measured on day 14 post-emergence relative to control
Phaseolus vulgaris [26] = assay: Phytotoxicity against Phaseolus vulgaris (cranberry beans) assessed as yield at 1116 g a.i./ha applied pre-emergence 1 to 2 days post-planting measured on day 42 post-emergence (reference value: 3.1 tons/ha)
Phaseolus vulgaris [27] = assay: Phytotoxicity against Phaseolus vulgaris (kidney beans) assessed as visual crop injury at 1116 g a.i./ha applied pre-emergence 1 to 2 days post-planting measured on day 14 post-emergence relative to control
Phaseolus vulgaris [28] = assay: Phytotoxicity against Phaseolus vulgaris (brown beans) assessed as shoot dry weight at 2232 g a.i./ha applied pre-emergence 1 to 2 days post-planting measured on day 42 post-emergence (reference value: 149 g/m)
Phaseolus vulgaris [29] = assay: Phytotoxicity against Phaseolus vulgaris (brown beans) assessed as plant height at 1116 g a.i./ha applied pre-emergence 1 to 2 days post-planting measured on day 28 post-emergence (reference value: 37 cm)
Phaseolus vulgaris [30] = assay: Phytotoxicity against Phaseolus vulgaris (brown beans) assessed as visual crop injury at 1116 g a.i./ha applied pre-emergence 1 to 2 days post-planting measured on day 14 post-emergence relative to control
Phaseolus vulgaris [31] = assay: Phytotoxicity against Phaseolus vulgaris (kidney beans) assessed as yield at 2232 g a.i./ha applied pre-emergence 1 to 2 days post-planting measured on day 42 post-emergence (reference value: 2.3 tons/ha)
Phaseolus vulgaris [32] = assay: Phytotoxicity against Phaseolus vulgaris (otebo beans) assessed as yield at 1116 g a.i./ha applied pre-emergence 1 to 2 days post-planting measured on day 42 post-emergence (reference value: 3.4 tons/ha)

**Q.** How did the Activity (Phaseolus vulgaris [1]) turn out when `CC1(C)CON(Cc2ccccc2Cl)C1=O` [CLOMAZONE] was run?
**A.** 13%

**Q.** What about the Crop_yield (Phaseolus vulgaris [2]) of the same compound?
**A.** 3 tons/ha

**Q.** And the Activity (Phaseolus vulgaris [3])?
**A.** 6%

**Q.** What about the Activity (Phaseolus vulgaris [4]) of the same compound?
**A.** 3%

**Q.** And the Activity (Phaseolus vulgaris [5])?
**A.** 32 cm

**Q.** What about the Activity (Phaseolus vulgaris [6]) of the same compound?
**A.** 36 cm

**Q.** What about the Activity (Phaseolus vulgaris [7]) of the same compound?
**A.** 32 cm

**Q.** And the Activity (Phaseolus vulgaris [8])?
**A.** 146 g/m

**Q.** What about the Crop_yield (Phaseolus vulgaris [9]) of the same compound?
**A.** 3.3 tons/ha

**Q.** And the Crop_yield (Phaseolus vulgaris [10])?
**A.** 3.1 tons/ha

**Q.** And the Activity (Phaseolus vulgaris [11])?
**A.** 36 cm

**Q.** And the Activity (Phaseolus vulgaris [12])?
**A.** 6%

**Q.** And the Activity (Phaseolus vulgaris [13])?
**A.** 2%

**Q.** What about the Crop_yield (Phaseolus vulgaris [14]) of the same compound?
**A.** 3.2 tons/ha

**Q.** What about the Activity (Phaseolus vulgaris [15]) of the same compound?
**A.** 150 g/m

**Q.** What about the Activity (Phaseolus vulgaris [16]) of the same compound?
**A.** 10%

**Q.** What about the Activity (Phaseolus vulgaris [17]) of the same compound?
**A.** 154 g/m

**Q.** And the Activity (Phaseolus vulgaris [18])?
**A.** Non-toxic

**Q.** And the Activity (Phaseolus vulgaris [19])?
**A.** 4%

**Q.** What about the Activity (Phaseolus vulgaris [20]) of the same compound?
**A.** 1%

**Q.** And the Crop_yield (Phaseolus vulgaris [21])?
**A.** 2.6 tons/ha

**Q.** What about the Activity (Phaseolus vulgaris [22]) of the same compound?
**A.** 8%

**Q.** What about the Activity (Phaseolus vulgaris [23]) of the same compound?
**A.** 34 cm

**Q.** And the Crop_yield (Phaseolus vulgaris [24])?
**A.** 3.2 tons/ha

**Q.** What about the Activity (Phaseolus vulgaris [25]) of the same compound?
**A.** 3%

**Q.** And the Crop_yield (Phaseolus vulgaris [26])?
**A.** 3.2 tons/ha

**Q.** And the Activity (Phaseolus vulgaris [27])?
**A.** 5%

**Q.** And the Activity (Phaseolus vulgaris [28])?
**A.** 143 g/m

**Q.** And the Activity (Phaseolus vulgaris [29])?
**A.** 35 cm

**Q.** And the Activity (Phaseolus vulgaris [30])?
**A.** 3%

**Q.** What about the Crop_yield (Phaseolus vulgaris [31]) of the same compound?
**A.** 2.3 tons/ha

**Q.** What about the Crop_yield (Phaseolus vulgaris [32]) of the same compound?
**A.** 3.4 tons/ha
